Drawing on US11208399B2, “NLRP3 inflammasome inhibitors” (Novartis AG, priority 2019, dated 2021), this text covers IC50 for 28 compounds.

Structures are written as SMILES. Counter-ions that a name gives are not always drawn.

Test [1] concerns NF-kB-dependent TNF-α secretion. In words: TNF-α secretion assay in THP-1 cells (counter screen, HTRF). It is filed as cell-based. Conditions: Homo sapiens, Pam3CSK4-stimulated, 3 hours. The procedure: Monocytic THP-1 cells were maintained according to providers' instructions in RPMI media as described above. […] Experimental compounds were prepared and added as described above. TNF-α secretion was triggered by the addition of either 1 μg/mL LPS (Sigma, #L4391) or 100 ng/mL Pam3CSK4 (Invivogen, #tlrl-pms) depending on the experiment, and cells were incubated for 3 hours. 10 μL supernatant was removed, and TNF-α levels were monitored using an HTRF assay (CisBio, #62TNFPEC) according to manufacturers' instructions. Viability was monitored as described above.
IC50 values were calculated from the plot of percentage of inhibition versus the inhibitor concentration by a logistics fit according to: y=A2+(A1−A2)/(1+(x/IC50)^p) where y is the %-inhibition at the inhibitor concentration, x. A1 is the lowest inhibition value, i.e. 0%, and A2 the maximum inhibition value, i.e. 100%. The exponent, p, is the Hill coefficient. The curve fitting was conducted with an internally developed software suite. […]
On the technique in general: Counterscreens check selectivity or assay interference.

Another test relates to NLRP3 inflammasome. In words: IL-1β secretion assay in PMA-differentiated THP-1 cells, nigericin-activated (HTRF). Conditions: Homo sapiens, 15 μM nigericin, 3 hours, read-out: IL-1β IC50. It is filed as cell-based. The protocol: 10 μL supernatant was removed, and IL-1p levels were monitored using an HTRF assay (CisBio, #621L1PEC) according to manufacturers' instructions. Viability and pyroptosis was monitored with the addition of PrestoBlue cell viability reagent (Life Technologies, #A13261) directly to the cell culture plate.
IC50 values were calculated from the plot of percentage of inhibition versus the inhibitor concentration by a logistics fit according to: y=A2+(A1−A2)/(1+(x/IC50)^p) where y is the %-inhibition at the inhibitor concentration, x. A1 is the lowest inhibition value, i.e. 0%, and A2 the maximum inhibition value, i.e. 100%. The exponent, p, is the Hill coefficient. The curve fitting was conducted with an internally developed software suite.
NLRP3-dependent IL-1β secretion was stimulated in PMA-differentiated THP-1 cells by the addition of nigericin, and cytokines were measured in the […] after 3 hours. As discussed above, activation of the NLRP3 inflammasome requires both an NF-kB-dependent priming step and the addition of a NLRP3 activator.
On the technique in general: Time-resolved FRET reads energy transfer from a long-lived donor to a nearby acceptor.

For the compound `Cc1cc(C(F)(F)F)cc(O)c1-c1ccc(NCc2ccccn2)nn1` [Ex 28, 3-Methyl-2-(6-((pyridin-2-ylmethyl)amino)pyridazin-3-yl)-5-(trifluoromethyl)phenol], the values for the 50% inhibitory concentration (IC50) (in test [1]; in the test on NLRP3 inflammasome) were greater than 100000 nM and 288 nM, respectively.
As for `Cc1cc(C(F)(F)F)cc(O)c1-c1ccc(NCC2COCCN2C)nn1` (racemic) [Ex 77, (rac)-3-Methyl-2-(6-(((4-methylmorpholin-3-yl)methyl)amino)pyridazin-3-yl)-5-(trifluoromethyl)phenol], the IC50 (as a rule, the midpoint of a concentration-inhibition curve) in test [1] is greater than 100000 nM; with NLRP3 inflammasome, 61.9 nM.
As to `Cc1cc(C(F)(F)F)cc(O)c1-c1ccc(NC[C@](C)(O)C(F)(F)F)nn1` [Ex 78, (S)-3-Methyl-2-(6-((3,3,3-trifluoro-2-hydroxy-2-methylpropyl)amino)pyridazin-3-yl)-5-(trifluoromethyl)phenol HCl-salt], the figures for the IC50 (in test [1]; in the test on NLRP3 inflammasome) were greater than 100000 nM and 198 nM, respectively.
In the case of `Cc1cc(C(F)(F)F)cc(O)c1-c1ccc(NC[C@@H]2C[C@H](F)CN2)nn1` [Ex 75, 2-(6-((((2S,4S)-4-Fluoropyrrolidin-2-yl)methyl)amino)pyridazin-3-yl)-3-methyl-5-(trifluoromethyl)phenol], the IC50 in test [1] was greater than 100000 nM; in the test with NLRP3 inflammasome it was 18.3 nM.
`Cc1cc(C(F)(F)F)cc(O)c1-c1ccc(N[C@H]2CC[C@H](O)[C@@H]2O)nn1` [Ex 89a, (1S,2R,3S)-3-((6-(2-Hydroxy-6-methyl-4-(trifluoromethyl)phenyl)pyridazin-3-yl)amino) cyclopentane-1,2-diol]: the IC50 in test [1] is greater than 100000 nM; in the test on NLRP3 inflammasome it was 59.7 nM.
In the case of `Cc1cc(C(F)(F)F)cc(O)c1-c1ccc(OCC(C)(C)O)nn1` [Ex 19, 2-(6-(2-Hydroxy-2-methylpropoxy)pyridazin-3-yl)-3-methyl-5-(trifluoromethyl)phenol], the concentration for half-maximal inhibition (IC50) is greater than 100000 nM in test [1] and 93.6 nM in the test with NLRP3 inflammasome.
On to `Cc1cc(C(F)(F)F)cc(O)c1-c1ccc(NC[C@H]2CCCCN2CCO)nn1` [Ex 84a, (R)-2-(6-(((1-(2-Hydroxyethyl)piperidin-2-yl)methyl)amino)pyridazin-3-yl)-3-methyl-5-(trifluoromethyl)phenol], for which the IC50 was greater than 100000 nM in test [1] and 42.5 nM in the test with NLRP3 inflammasome.
The like results for `Cc1cc(C(F)(F)F)cc(O)c1-c1ccc(NC[C@@H](F)C(C)(C)O)nn1` [Ex 60, (R)-2-(6-((2-Fluoro-3-hydroxy-3-methylbutyl)amino)pyridazin-3-yl)-3-methyl-5-(trifluoromethyl)phenol] were, in that order, greater than 100000 nM and 140 nM.
The like results for `Cc1cc(C(F)(F)F)cc(O)c1-c1ccc(NC[C@@H]2C[C@@H](F)CN2)nn1` [Ex 76, 2-(6-((((2S,4R)-4-Fluoropyrrolidin-2-yl)methyl)amino)pyridazin-3-yl)-3-methyl-5-(trifluoromethyl)phenol] were, in that order, greater than 100000 nM and 89.7 nM.
For `Cc1cc(C(F)(F)F)cc(O)c1-c1ccc(NC[C@@H]2CCCCN2CCO)nn1` [Ex 84b, (S)-2-(6-(((1-(2-Hydroxyethyl)piperidin-2-yl)methyl)amino)pyridazin-3-yl)-3-methyl-5-(trifluoromethyl)phenol] the same measures were greater than 33000 nM and 53.3 nM.
As for `Cc1cc(N[C@H]2C[C@@](C)(O)C2)nnc1-c1ccc(C(F)(F)F)cc1O` [Ex 55, 2-(6-(((cis)-3-Hydroxy-3-methylcyclobutyl)amino)-4-methylpyridazin-3-yl)-5-(trifluoromethyl)phenol], the IC50 in test [1] was found to be 45000 nM; in the test on NLRP3 inflammasome it was 45.8 nM.
For `C[C@]1(O)C[C@@H](Nc2cc(C(F)(F)F)c(-c3ccc(C(F)(F)F)cc3O)nn2)C1` [Ex 66, 2-(6-(((cis)-3-Hydroxy-3-methylcyclobutyl)amino)-4-(trifluoromethyl)pyridazin-3-yl)-5-(trifluoromethyl)phenol], the IC50 in test [1] is greater than 33000 nM; in the test with NLRP3 inflammasome, 187 nM.
The like results for `Cc1cc(C(F)(F)F)cc(O)c1-c1ccc(NC[C@@H]2CC(F)(F)CN2)nn1` [Ex 22, (S)-2-(6-(((4,4-Difluoropyrrolidin-2-yl)methyl)amino)pyridazin-3-yl)-3-methyl-5-(trifluoromethyl)phenol] were, in that order, greater than 100000 nM and 80.7 nM.
On to `Cc1cc(C(F)(F)F)cc(O)c1-c1cc(C(F)(F)F)c(N[C@H]2C[C@@](C)(O)C2)nn1` [Ex 56, 2-(6-(((cis)-3-Hydroxy-3-methylcyclobutyl)amino)-5-(trifluoromethyl)pyridazin-3-yl)-3-methyl-5-(trifluoromethyl)phenol], for which the IC50 was greater than 100000 nM in test [1] and 8.3 nM with NLRP3 inflammasome.
Take `CC(C)(O)CNc1ccc(-c2c(O)cc(C(F)(F)F)cc2Cl)nn1` [Ex 30, 3-Chloro-2-(6-((2-hydroxy-2-methylpropyl)amino)pyridazin-3-yl)-5-(trifluoromethyl)phenol]: the IC50 in test [1] was greater than 100000 nM; in the test with NLRP3 inflammasome it was 214 nM.
The like results for `Cc1cc(C(F)(F)F)cc(O)c1-c1ccc(N[C@@H]2CCCN3CCC[C@H]23)nn1` [Ex 83a, 3-Methyl-2-(6-(((8R,8aR)-octahydroindolizin-8-yl)amino)pyridazin-3-yl)-5-(trifluoromethyl) phenol] were, in that order, greater than 100000 nM and 0.8 nM.
As to `Cc1cc(C(F)(F)F)cc(O)c1-c1ccc(NCC(C)(C)N(C)C)nn1` [Ex 16, 2-(6-((2-(Dimethylamino)-2-methylpropyl)amino)pyridazin-3-yl)-3-methyl-5-(trifluoromethyl)phenol], the IC50 is greater than 100000 nM in test [1] and 36.3 nM in the test on NLRP3 inflammasome.
In the case of `Cc1cc(C(F)(F)F)cc(O)c1-c1ccc(N[C@H]2C[C@@](C)(O)C2)nn1` [Ex 2, 2-(6-(((cis)-3-Hydroxy-3-methylcyclobutyl)amino)pyridazin-3-yl)-3-methyl-5-(trifluoromethyl)phenol], the figures for the half-maximal inhibitory concentration (IC50) (in test [1]; in the test on NLRP3 inflammasome) were greater than 100000 nM and 10.2 nM, respectively.
As for `Cc1cc(C(F)(F)F)cc(O)c1-c1ccc(Nc2cncnc2)nn1` [Ex 43, 3-Methyl-2-(6-(pyrimidin-5-ylamino)pyridazin-3-yl)-5-(trifluoromethyl)phenol], the IC50 in test [1] came to 25000 nM; with NLRP3 inflammasome, 281 nM.
For the compound `Cc1cc(C(F)(F)F)cc(O)c1-c1ccc(N[C@@H]2CCCN(C)C2=O)nn1` [Ex 59, (R)-3-((6-(2-Hydroxy-6-methyl-4-(trifluoromethyl)phenyl)pyridazin-3-yl)amino)-1-methylpiperidin-2-one], the IC50 was greater than 100000 nM in test [1] and 35.9 nM with NLRP3 inflammasome.
Compound `Cc1cc(-c2c(C)cc(C(F)(F)F)cc2O)nnc1N[C@@H]1CCCN(C)C1` [Ex 5, (R)-3-Methyl-2-(5-methyl-6-((1-methylpiperidin-3-yl)amino)pyridazin-3-yl)-5-(trifluoromethyl)phenol] registered an IC50 in test [1] greater than 33000 nM.
In the case of `Cc1cc(C(F)(F)F)cc(O)c1-c1ccc(N[C@@H]2CCCN[C@@H]2C)nn1` [Ex 91b, 3-Methyl-2-(6-(((2R,3R)-2-methylpiperidin-3-yl)amino)pyridazin-3-yl)-5-(trifluoromethyl) phenol], the IC50 in test [1] was greater than 100000 nM.
In test [1], `Cc1cc(C(F)(F)F)cc(O)c1-c1ccc(N[C@@H]2CCCN(CC(C)(C)O)C2)nn1` [Ex 80, (R)-2-(6-((1-(2-Hydroxy-2-methylpropyl)piperidin-3-yl)amino)pyridazin-3-yl)-3-methyl-5-(trifluoromethyl)phenol] registered an IC50 greater than 33000 nM.
`Cc1cc(N[C@@H]2CCCN(C)C2)nnc1-c1ccc(C(F)(F)F)cc1O` [Ex 4, (R)-2-(4-Methyl-6-((1-methylpiperidin-3-yl)amino)pyridazin-3-yl)-5-(trifluoromethyl)phenol]: in test [1], the IC50 was greater than 100000 nM.
`Cc1cc(C(F)(F)F)cc(O)c1-c1ccc(N[C@@H]2CCCN(C[C@H](C)O)C2)nn1` [Ex 92a, 2-(6-(((R)-1-((S)-2-Hydroxypropyl)piperidin-3-yl)amino)pyridazin-3-yl)-3-methyl-5-(trifluoromethyl)phenol] showed an IC50 in test [1] greater than 100000 nM.
Take `Cc1cc(-c2c(C)cc(C(F)(F)F)cc2O)nnc1N[C@@H]1CCCN(C)C1=O` [Ex 102, (R)-3-((6-(2-Hydroxy-6-methyl-4-(trifluoromethyl)phenyl)-4-methylpyridazin-3-yl)amino)-1-methylpiperidin-2-one]: in the test on NLRP3 inflammasome, the IC50 worked out at 49 nM.
Compound `Cc1cc(C(F)(F)F)cc(O)c1-c1ccc(NC2CNCC(F)(F)C2)nn1` (stereo not drawn) [Ex 9, 2-(6-((5,5-Difluoropiperidin-3-yl)amino)pyridazin-3-yl)-3-methyl-5-(trifluoromethyl)phenol] came in with an IC50 in test [1] greater than 100000 nM.
Take `Cc1cc(C(F)(F)F)cc(O)c1-c1ccc(O[C@@H]2CCCN(C)C2)nn1` [Ex 42, (R)-3-Methyl-2-(6-((1-methylpiperidin-3-yl)oxy)pyridazin-3-yl)-5-(trifluoromethyl)phenol]: in test [1], the concentration for half-maximal inhibition (IC50) is greater than 100000 nM.
